{
  "source": "patent US20230293511A1",
  "about": "“Ophthalmic Compositions and Uses Thereof” (priority 2022, published 2023)",
  "test_system": "patients with Fuchs Corneal Dystrophy (corneal edema)",
  "type": "in vivo, human",
  "conditions": "for BCVA (best corrected visual acuity) improvement: netarsudil QD",
  "text": "FIG. 1 is a graphic representation of the study described in Example 6.\nA Randomized, Open-Label, Parallel-Group Study of Two Dosing Regimens of Netarsudil in Patients with Fuchs Corneal Dystrophy\nFuchs Corneal Dystrophy (FCD) is a slowly progressive corneal disease, and is the most common indication for corneal transplants worldwide. A typical patient presents with blurred vision, glare, and a hazy cornea from corneal edema. The only definitive treatment option to restore vision is surgery. There is a large unmet need for pharmacologic alternatives to surgery\nPurpose of this study: evaluate the therapeutic potential of two dosing regimens of netarsudil, a Rho kinase inhibitor, to reduce corneal edema and improve visual acuity in patients with FCD. […] Complete resolution of edema in 12.5% of patients at Week 4 (BID+QD) (FIG. 2). • d. 25% of patients gained letters from baseline in BCVA at Week 4 (BID+QD) (FIG. 4). • e. […] Improvements in validated patient reported outcome questionnaire shown at all timepoints with netarsudil QD dosing (FIG. 5). • g. […] Most common ocular TEAE was hyperemia accounting for 3/9 and 6/17 total ocular TEAE in the QD and BID groups, respectively. • i. Reticular edema developed in 1 patient in BID group, which resolved with treatment discontinuation.",
  "note": "Like-named read-outs stand apart in the source and are kept apart here.",
  "data": [
    {"smiles": "Cc1ccc(C(=O)OCc2ccc([C@@H](CN)C(=O)Nc3ccc4cnccc4c3)cc2)c(C)c1", "note": "[netarsudil, Netarsudil]", "values": [
      {"measurement": "reticular edema developed", "setting": "human, in vivo", "result": 1, "unit": "patient"},
      {"measurement": "tolerability", "setting": "human, in vivo", "result": "well tolerated"},
      {"measurement": "BCVA (best corrected visual acuity) improvement", "setting": "week 2", "result": 5.0, "unit": "letters"},
      {"measurement": "BCVA (best corrected visual acuity) improvement", "setting": "week 4", "result": 3.2, "unit": "letters"},
      {"measurement": "patients with complete resolution of edema", "setting": "week 4, BID+QD", "result": 12.5, "unit": "%"},
      {"measurement": "patients who gained letters from baseline in BCVA", "setting": "week 4, overall (BID+QD)", "result": 25, "unit": "%"}
    ]}
  ]
}
